Laboratory results taken from ChEMBL document CHEMBL1201862, “PubChem BioAssay data set” (2004).
The source made the active and inactive calls. For most assays here, no stated cut-off is given here; in the data, actives have a measured EC50 and inactives only a lower limit.

Key:
[1] = tested on: BJ; test: cells; assay type: functional, cell-based; conditions: Homo sapiens
[2] = tested on: BJ; test: BJ-TERT fibroblast viability loss – cell-based, RAS-independent, luminescence, dose response (AID 1933); assay type: functional; conditions: Homo sapiens
[3] = tested on: BJ; test: BJ-TERT-LT-ST fibroblast viability loss – cell-based, RAS-independent, luminescence, dose response (AID 1935); assay type: functional; conditions: Homo sapiens;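 further: BJ fibroblasts immortalized with TERT plus LT and ST oncogenes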
[4] = DRD fibroblast viability loss – cell-based, non-viral oncogenic, luminescence, dose response (AID 1934); assay type: functional; conditions: Homo sapiens
[5] = tested on: Vero; test: cells; assay type: functional; conditions: Chlorocebus sabaeus
[6] = cells; assay type: functional, cell-based
[7] = cells; assay type: functional, cell-based; remark: listed apart in the source
[8] = target: Paired box protein Pax-8 (Homo sapiens, UniProt Q06710); test: PAX8 transcriptional activity inhibition in RMG-I – RMG-I cells, luciferase, cherry-pick, dose response (AID 687027); assay type: functional, cell-based;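 further: luciferase reporter driven by Pax8 target thyroperoxidase promoter measured by SteadyGlo luminescence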
Paired box protein Pax-8, sequence (Q06710 whole entry): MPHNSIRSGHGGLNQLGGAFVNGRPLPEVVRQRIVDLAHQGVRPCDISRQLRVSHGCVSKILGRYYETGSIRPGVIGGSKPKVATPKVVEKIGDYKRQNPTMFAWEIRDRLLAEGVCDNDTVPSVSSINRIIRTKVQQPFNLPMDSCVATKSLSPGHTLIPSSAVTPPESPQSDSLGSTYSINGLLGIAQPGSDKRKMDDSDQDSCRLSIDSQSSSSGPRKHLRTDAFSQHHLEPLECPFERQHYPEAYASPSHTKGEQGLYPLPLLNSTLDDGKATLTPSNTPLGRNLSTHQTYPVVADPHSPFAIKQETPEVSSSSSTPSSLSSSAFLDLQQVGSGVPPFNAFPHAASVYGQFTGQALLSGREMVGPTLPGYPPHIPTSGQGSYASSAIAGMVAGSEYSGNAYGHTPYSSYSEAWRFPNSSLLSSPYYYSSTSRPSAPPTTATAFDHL

[9] = target: T1, Polyadenylate-binding protein 1 (Homo sapiens, UniProt P11940); test: MLLE binding blockers, Cy5 peptide tracer – biochemical, fluorescence polarization, Cy5-PAM2 peptide, secondary, miRNA deadenylation inhibitor project, dose response (AID 602260); assay type: functional; conditions: read-out: IC50_Mean
T1 sequence (P11940 whole entry, the tested form may be a part): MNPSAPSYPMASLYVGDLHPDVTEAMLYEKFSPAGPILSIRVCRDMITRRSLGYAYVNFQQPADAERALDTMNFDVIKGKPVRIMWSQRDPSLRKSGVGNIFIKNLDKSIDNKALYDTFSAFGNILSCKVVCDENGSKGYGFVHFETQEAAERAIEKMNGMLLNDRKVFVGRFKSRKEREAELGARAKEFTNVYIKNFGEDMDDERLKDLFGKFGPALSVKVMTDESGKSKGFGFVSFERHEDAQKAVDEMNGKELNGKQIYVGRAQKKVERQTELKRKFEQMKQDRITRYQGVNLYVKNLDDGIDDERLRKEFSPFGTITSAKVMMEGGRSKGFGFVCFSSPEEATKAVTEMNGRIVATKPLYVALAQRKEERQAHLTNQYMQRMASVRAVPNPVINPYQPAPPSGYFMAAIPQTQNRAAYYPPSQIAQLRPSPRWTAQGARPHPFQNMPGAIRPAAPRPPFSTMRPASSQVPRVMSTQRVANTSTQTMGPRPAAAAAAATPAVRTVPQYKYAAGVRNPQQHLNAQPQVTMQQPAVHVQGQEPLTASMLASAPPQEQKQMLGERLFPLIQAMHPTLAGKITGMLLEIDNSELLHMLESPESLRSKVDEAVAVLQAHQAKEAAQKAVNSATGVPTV

[10] = target: T1, Polyadenylate-binding protein 1; test: MLLE domain peptide-binding blockers, IC50 – biochemical, fluorescence polarization, FITC-PAM2 peptide, dose response (AID 602259); assay type: functional; conditions: read-out: IC50_Mean
[11] = target: T2, Heat shock factor protein 1 (Mus musculus, UniProt P38532); test: enhancement of HSF1-driven luciferase signal – cell-based, NIH3T3, luminescence, dose retest, confirmation (AID 435004); assay type: functional;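 further: stress induced by proteasome inhibitor MG132 added 30 min after compound; luciferase reporter driven by HSF1 response element in NIH3T3 cells; actives raise luminescence as potentiators of the MG132 stress response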
T2 sequence (P38532 whole entry): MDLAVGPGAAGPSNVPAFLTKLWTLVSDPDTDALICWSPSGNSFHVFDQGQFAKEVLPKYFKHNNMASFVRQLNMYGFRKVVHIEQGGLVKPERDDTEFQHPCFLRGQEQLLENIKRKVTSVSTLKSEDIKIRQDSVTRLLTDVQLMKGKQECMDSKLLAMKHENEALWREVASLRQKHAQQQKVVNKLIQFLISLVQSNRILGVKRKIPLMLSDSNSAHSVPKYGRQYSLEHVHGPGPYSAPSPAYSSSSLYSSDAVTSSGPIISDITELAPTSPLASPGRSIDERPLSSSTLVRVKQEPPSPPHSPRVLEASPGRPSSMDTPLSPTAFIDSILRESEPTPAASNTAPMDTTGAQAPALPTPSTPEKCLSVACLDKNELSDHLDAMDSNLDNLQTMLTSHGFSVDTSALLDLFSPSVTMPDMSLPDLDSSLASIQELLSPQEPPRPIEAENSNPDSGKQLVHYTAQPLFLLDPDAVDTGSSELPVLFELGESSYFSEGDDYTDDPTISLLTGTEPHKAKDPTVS

[12] = target: Induced myeloid leukemia cell differentiation protein Mcl-1 (Homo sapiens, UniProt Q07820); assay type: functional
Induced myeloid leukemia cell differentiation protein Mcl-1, sequence (Q07820 whole entry): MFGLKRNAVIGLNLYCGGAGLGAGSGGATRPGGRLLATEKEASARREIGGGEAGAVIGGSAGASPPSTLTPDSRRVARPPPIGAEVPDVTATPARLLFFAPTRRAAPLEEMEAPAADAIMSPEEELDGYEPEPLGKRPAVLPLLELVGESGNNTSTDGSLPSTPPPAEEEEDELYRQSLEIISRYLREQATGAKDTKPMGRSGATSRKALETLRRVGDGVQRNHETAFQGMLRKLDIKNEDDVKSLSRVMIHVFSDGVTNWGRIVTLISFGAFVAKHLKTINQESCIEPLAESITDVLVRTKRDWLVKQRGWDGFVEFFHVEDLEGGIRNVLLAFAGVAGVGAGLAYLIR

[13] = target: T3, Streptokinase A (Streptococcus pyogenes serotype M1, UniProt P10520); test: viability-normalized secreted streptokinase activity reduction – plasminogen activation absorbance, OD405, dose response (AID 1914); assay type: functional, Streptococcus pyogenes M1 GAS;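 further: secreted streptokinase activity via plasminogen activation per viability signal from cell pellet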
T3 sequence (P10520 whole entry): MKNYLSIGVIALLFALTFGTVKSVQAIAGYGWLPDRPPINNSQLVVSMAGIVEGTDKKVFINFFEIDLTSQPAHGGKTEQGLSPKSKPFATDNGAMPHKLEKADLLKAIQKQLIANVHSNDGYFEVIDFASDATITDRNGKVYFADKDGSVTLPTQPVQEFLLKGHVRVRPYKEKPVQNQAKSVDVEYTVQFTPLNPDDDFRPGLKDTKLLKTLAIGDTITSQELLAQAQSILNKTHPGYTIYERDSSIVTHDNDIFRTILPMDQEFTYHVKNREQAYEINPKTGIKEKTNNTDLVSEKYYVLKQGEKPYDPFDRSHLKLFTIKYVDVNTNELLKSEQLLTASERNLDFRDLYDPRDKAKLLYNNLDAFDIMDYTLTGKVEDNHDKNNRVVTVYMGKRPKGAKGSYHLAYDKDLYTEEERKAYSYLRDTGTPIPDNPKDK

[14] = tested on: Streptococcus; test: GAS UMAA2166 growth inhibition – luminescence, BacTiterGlo, counter-screen for streptokinase expression inhibitor project, dose response (AID 1915); assay type: functional, organism-based;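 further: potency for reduction of bacterial viability or growth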
[15] = tested on: Streptococcus sp. 'group A'; test: Streptococcus pyogenes SK(-)GAS viability under kanamycin – luminescence, BacTiterGlo, confirmation, counter-screen for streptokinase expression inhibitor project, dose response (AID 1900); assay type: functional, organism-based
[16] = target: FAD-linked sulfhydryl oxidase ALR (Homo sapiens, UniProt P55789); test: ALR-catalysed DTT oxidation blockers – biochemical, H2O2 detection, luminescence, cherry-pick, dose response (AID 493248)
FAD-linked sulfhydryl oxidase ALR, sequence (P55789 whole entry): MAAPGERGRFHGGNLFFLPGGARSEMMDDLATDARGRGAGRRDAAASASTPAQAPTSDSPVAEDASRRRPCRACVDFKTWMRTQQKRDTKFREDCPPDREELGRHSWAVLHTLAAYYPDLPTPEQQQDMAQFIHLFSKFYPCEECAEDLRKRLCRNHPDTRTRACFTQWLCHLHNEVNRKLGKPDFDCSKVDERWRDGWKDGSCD

[17] = Luminescence Cell-Based Dose Retest to Confirm Inhibitors of Cancer Stem Cells. [Related pubchem assays (depositor defined):AID2717, AID2721]; assay type: functional; conditions: Homo sapiens
[18] = NIH3T3 cell viability loss – ATP luminescence, mouse fibroblasts, counter-screen, dose response (AID 2010); assay type: functional, cell-based;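 further: cells exposed to compound for about 90 hours before reading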
[19] = Trypanosoma cruzi growth suppression in host cells – NIH3T3 host cells, beta-gal luminescence, confirmation (AID 2044); assay type: functional, cell-based;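 further: intracellular parasites grown in NIH/3T3 mouse fibroblasts as host cells; luminescent beta-galactosidase reporter signal from transgenic T. cruzi replicating inside host cells; inhibitors lower the luminescence signal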
[20] = Luminescence Cell-Based Dose Response HTS to Identify Activators of Luciferase Translation or Activity in H4 […] Cells. [Related pubchem assays: 1829 (Project Summary), 1814 (Primary HTS)]; assay type: functional
[21] = Luminescence Cell-Based Dose Confirmation HTS to Identify Activators of 5'UTR Stem-Loop Driven Alpha-Synuclein mRNA Translation in H4 Neuroglioblastoma Cells. [Related pubchem assays: 1829 (Project Summary), 1814 (Primary HTS)]; assay type: functional
[22] = tested on: H4; test: Luminescence Cell-Based Dose Response HTS to Identify Activators of 5'UTR Stem-Loop Driven Prion Protein mRNA Translation in H4 Neuroglioblastoma Cells. [Related pubchem assays: 1829 (Project Summary), 1814 (Primary HTS)]; assay type: functional; conditions: Homo sapiens

COc1ccc(C=C2c3ccccc3C(=O)c3ccccc32)c(OC)c1
EC50 [1]: 2.33 µM (inconclusive)
EC50 [2]: 2.8 µM (inconclusive)
EC50 [3]: 18.3 µM (inconclusive)
EC50 [4]: 2.6 µM (active)
CC50 [5]: < 0.05 µM (active)

COc1cc(SC)ccc1C(=O)NCCc1ccccc1
EC50 [6]: 18.9 µM (active)
EC50 [7]: > 350 µM (not active)

C[C@@H]1CCCCO[C@@H](CN(C)C(=O)C2CCCCC2)[C@H](C)CN([C@H](C)CO)C(=O)c2cc(NS(=O)(=O)c3ccc(Cl)cc3)ccc2O1
AC50 [8]: 4.99 µM (active)

Cc1ccc(C(=O)CNc2cccc([N+](=O)[O-])c2)cc1
IC50 [9]: > 66 µM (inactive)
IC50 [10]: > 66 µM (inactive)

CCOC(=S)SCC(=O)N1CCc2cc(OC)c(OC)cc2C1C1C(=O)CC(C)(C)CC1=O (centres undefined)
EC50 [11]: > 260 µM (inactive)

O=C(CC(Sc1ccccc1)c1cccs1)c1ccco1 (centres undefined)
IC50 [9]: > 66 µM (inactive)
IC50 [10]: > 66 µM (inactive)

O=S(=O)(c1cc(Cl)ccc1Cl)N1CC2CCCN2c2ccc(C(F)(F)F)cc21 (centres undefined)
EC50 [11]: > 260 µM (inactive)

CCC(C)NCCCOc1c(C)cc(C)cc1Br (centres undefined)
IC50 [12]: 6.63 µM (not active)

CN(C1CCCC1)C1CCN(C(S)=Nc2cc(F)cc(F)c2)CC1
EC50 [6]: > 350 µM (not active)
EC50 [7]: > 350 µM (not active)

COC(=O)c1cn(NC(=O)C2CCC(C)CC2)c(=O)c2ccccc12 (centres undefined)
EC50 [11]: > 260 µM (inactive)

CN(C)CCOC1(Cc2ccc(F)cc2)CCC(C(C)(C)C)CC1 (centres undefined)
CC50 [5]: > 25 µM (active)

COc1cccc(C2C3=C(N=c4s/c(=C\c5ccccc5O)c(=O)n42)c2ccccc2CC3)c1OC (centres undefined)
EC50 [6]: > 350 µM (not active)
EC50 [7]: > 350 µM (not active)

Cc1cc(Oc2ccccc2)nc(N2CCOCC2)n1
EC50 [6]: > 350 µM (not active)
EC50 [7]: > 350 µM (not active)

COC(=O)/C(C#N)=C/c1c(N2CCN(Cc3ccc4c(c3)OCO4)CC2)nc2c(C)cccn2c1=O
EC50 [6]: > 350 µM (not active)
EC50 [7]: > 350 µM (not active)

COc1ccc(C(=O)NC2CCN(C(S)=NCc3ccco3)CC2)cc1
EC50 [11]: > 260 µM (inactive)

CCc1ccc(N(C(=O)c2snc(C(N)=O)c2N)C(C(=O)NCCC(C)C)c2c[nH]c3ccccc23)cc1 (centres undefined)
EC50 [11]: 139 µM (active)

COc1ccc(/N=C2/C(=N\c3ccc(OC)cc3)N(c3ccc(OC)cc3)C(=S)N2C(=O)c2ccc(OC)cc2)cc1
EC50 [11]: > 260 µM (inactive)

CCCc1ccc(-c2cc(N)[nH]n2)cc1
EC50 [13]: > 150 µM (not active)
EC50 [14]: > 150 µM (not active)
EC50 [15]: 30.9 µM (active)
AC50 [16]: 11.3 µM (active)

Nc1cc(-c2ccc(OC(F)(F)F)cc2)nn1-c1ccc(Cl)c(Cl)c1
EC50 [13]: 20 µM (inconclusive)
AC50 [17]: 4.74 µM (active)
EC50 [14]: 11.6 µM (active)
EC50 [15]: 6.98 µM (active)

Cc1cc2oc(=O)cc(CNc3ccccc3F)c2cc1O
EC50 [13]: 51.2 µM (active)
EC50 [14]: > 150 µM (not active)
EC50 [18]: > 60 µM (not active)
EC50 [15]: 9.59 µM (active)
EC50 [19]: 1.81 µM (active)

COc1ccc(NC(=O)CSc2nnc(NC(C)=O)s2)c([N+](=O)[O-])c1
IC50 [9]: > 66 µM (inactive)
IC50 [10]: > 66 µM (inactive)

COc1ccc(OC(=O)N2C/C(=C/c3ccccc3)C(=O)/C(=C\c3ccccc3)C2)cc1
CC50 [5]: 9.88 µM (active)

CC(C)OC(=O)c1c2nc3ccccc3nc2n2c1nc(O)c1ccccc12
EC50 [13]: > 150 µM (not active)
EC50 [14]: 39.6 µM (active)
EC50 [15]: 1.24 µM (active)

COc1ccc2o/c(=N\O)c(C(=O)Nc3ccc(C)cc3)cc2c1
EC50 [20]: 14.1 µM (active)
EC50 [21]: 16.6 µM (active)
CC50 [5]: > 25 µM (active)
EC50 [22]: 15.2 µM (active)

COC(=O)c1ccc(Cl)c(NC(=O)CSc2nnc(-c3ccncc3)o2)c1
EC50 [13]: > 150 µM (not active)
EC50 [14]: > 150 µM (not active)
EC50 [15]: > 150 µM (not active)
